Experimental data published in patent publication US8481716B2 (Wacker Chemie AG, priority 2004, dated 2013).

Assays:
Assay type in all cases: physicochemical
[1] = Temperature stability at 25° C.; conditions: for Content ALA: 25° C.
Procedure: Alpha lipic acid/cyclodextrin complexes were stored in a closed polypropylene container at 25° C.

[2] = Differential Scanning Calorimetry analysis for uncomplexed alpha-lipoic acid; conditions: DSC
Procedure: Cyclodextrin complexes (3-6 mg sample size) were analyzed using Differential Scanning Calorimeter (DSC). […] This peak, if present, was compared to a peak at this temperature of pure alpha-lipoic acid to calculate percentage of uncomplexed alpha-lipoic acid in the complex. […] The peak around 60° C. decreases with increasing degree of complexation.

[3] = Temperature stability at 40° C.
[4] = Temperature stability at 100° C.
[5] = closed polypropylene container, 0 days of storage, initial content set to 100%

- stability at room temperature ([1]; 25° C. storage): stable at room temperature
- Content ALA ([1]; 39 days of storage): 100%
- Content ALA ([1]; 67 days of storage): 100%
- Content ALA ([1]; 107 days of storage): 100%
- Content ALA [1, 5]: 100%
- Non Complexed ALA ([2]; melting peak around 60° C. compared to pure ALA): 100%
- Complexed ALA ([2]; complexed ALA in product): 0.0%
- Content ALA ([3]; 8 days of storage): 99%
- Content ALA ([3]; 39 days of storage): 48*) %
- Content ALA ([3]; 81 days of storage): 41*) %
- Content ALA [3, 5]: 100 ^ %
- Content ALA ([4]; 3 days of storage): 38%
- Content ALA ([4]; 11 days of storage): 13%
- Content ALA ([4]; 28 days of storage): 4%
- Content ALA ([4]; 36 days of storage): 0%
- Content ALA ([4]; closed glass containers, 0 days of storage, initial content set to 100%): 100%
SMILES: O=C(O)CCCCC1CCSS1 (stereo not drawn) [Pure ALA, Alpha-lipoic acid]
